The results in this text go back to patent US20230083012A1, “DIHYDROPYRIMIDINE DERIVATIVES AND USES THEREOF IN THE TREATMENT OF HBV INFECTION OR OF HBV-INDUCED DISEASES” (priority 2019, published 2023).

Structures are written as SMILES. pEC50: −log10 of the molar value. Read-outs that look alike come from different tables or passages of the source.

Assay type in all cases: cell-based
One series has as its system HepG2.2.15 cells. Kind of series: Cytotoxicity determination in HepG2.2.15 cells (CCK-8 cell viability). Particulars: 6 days treatment, CCK-8 assay, highest concentration 100 uM. Summed up:
(§1)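 Viability measured by CCK-8 absorbance (450 nm, 630 nm reference, 2.5 h at 37° C) after six days of treatment, medium and compound renewed on day 3. Top concentration 100 uM, eight threefold dilutions in triplicate; cells plated at 5,000/well in 2% FBS medium; CC50 derived.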

In a further series the test system is HBV. Briefly: Anti-HBV activity in HepG2.2.15 cells (HBV DNA in culture medium by qPCR). Put shortly:
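Secreted HBV DNA was measured by real-time PCR after 6-day compound exposure of HepG2.2.15 cells (2% FBS, 37 °C, re-dosed after 3 days), giving EC50 from 8-point 1:3 series starting at 10 or 1 uM. Cytotoxicity (CC50) run separately at lower cell density, top 100 uM.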
For orientation: Quantitative PCR measures a nucleic acid by following its amplification.

Series [1] in a line: Cytotoxicity determination in HepG2.2.15 cells (CCK-8 cell viability). To be noted: human, 6 days treatment, CCK-8 assay, highest concentration 100 uM. Summed up: as §1
[2] abbreviates: HepG2.2.15 cells, 6 days treatment, HBV DNA in culture medium quantified by real-time PCR, read-out: EC50.
Where [3] appears, read: Hepatitis B virus, HepG2.2.15, 144 h, HepG2.2.15 cells, 6 days treatment, HBV DNA in culture medium quantified by real-time PCR, read-out: EC50.

For `COC(=O)C1=C(CN2CC(F)(F)[C@H]3[C@@H]2CCN3C[C@@H](C)C(=O)O)NC(c2nccs2)=N[C@H]1c1cccc(F)c1C` (single isomer, unassigned) [Compound 131B, 3-((cis)-6,6-Difluoro-4-(((S*)-6-(3-fluoro-2-methylphenyl)-5-(methoxycarbonyl)-2-(thiazol-2-yl)-3,6-dihydropyrimidin-4-yl)methyl)hexahydropyrrolo[3,2-b]pyrrol-1(2H)-yl)-2-methylpropanoic acid], the midpoint of cytotoxicity in the series with HepG2.2.15 cells, the CC50, lay at 65600 nM. Moreover, the pEC50 (as a rule, the EC50 on a negative log10 scale, so that one unit is a factor of ten) with HBV (setting [2]) is 7.53.
For the molecule `CCOC(=O)C1=C(CN2CC(F)(F)C3CN(C(=O)C(C)(C)C(=O)O)CC32)NC(c2nccs2)=N[C@H]1c1cccc(F)c1C` (stereo in doubt) [Compound 9, (cis)-3-(1-(((S)-5-(Ethoxycarbonyl)-6-(3-fluoro-2-methylphenyl)-2-(thiazol-2-yl)-3,6-dihydropyrimidin-4-yl)methyl)-3,3-difluorohexahydropyrrolo[3,4-b]pyrrol-5(1H)-yl)-2,2-dimethyl-3-oxopropanoic acid], it took 76300 nM to reach half-maximal cytotoxicity in series [1] (CC50 at 6 days). Also, the pEC50 with HBV (setting [3]) is 7.38.
The corresponding values for `CCOC(=O)C1=C(CN2CC(F)(F)C3CN(CC(C)(C)C(=O)O)CC32)NC(c2nccs2)=N[C@H]1c1cccc(F)c1C` (stereo in doubt) [Compound 12, (cis)-3-(1-(((S)-5-(ethoxycarbonyl)-6-(3-fluoro-2-methylphenyl)-2-(thiazol-2-yl)-3,6-dihydropyrimidin-4-yl)methyl)-3,3-difluorohexahydropyrrolo[3,4-b]pyrrol-5(1H)-yl)-2,2-dimethylpropanoic acid] are 56700 nM and 7.49.
As for `CCOC(=O)C1=C(CN2CC(F)(F)C3CN(C(C)C(=O)O)CC32)NC(c2nccs2)=N[C@H]1c1cccc(F)c1C` (stereo in doubt) [Compound 14, 2-((cis)-1-(((S)-5-(Ethoxycarbonyl)-6-(3-fluoro-2-methylphenyl)-2-(thiazol-2-yl)-3,6-dihydropyrimidin-4-yl)methyl)-3,3-difluorohexahydropyrrolo[3,4-b]pyrrol-5(1H)-yl)propanoic acid], the CC50 (as a rule, the concentration giving 50% cytotoxicity) at 6 days in series [1] is > 100000 nM. Besides, in the series with HBV (setting [3]), the pEC50 is 6.86.
For the molecule `CCOC(=O)C1=C(CN2CC(F)(F)C3CN(CC(C)C(=O)O)CC32)NC(c2nccs2)=N[C@H]1c1cccc(F)c1C` (stereo in doubt) [Compound 15, 3-((cis)-1-(((S)-5-(ethoxycarbonyl)-6-(3-fluoro-2-methylphenyl)-2-(thiazol-2-yl)-3,6-dihydropyrimidin-4-yl)methyl)-3,3-difluorohexahydropyrrolo[3,4-b]pyrrol-5(1H)-yl)-2-methylpropanoic acid], in series [1], the CC50 at 6 days is > 100000 nM. Besides, in the series with HBV (setting [3]), the pEC50 was 7.22.
Turning to `CCOC(=O)C1=C(CN2CC(F)(F)[C@@H]3[C@H]2CN(C(=O)C(F)(F)F)N3CCC(C)(C)C(=O)O)NC(c2nccs2)=N[C@H]1c1cccc(F)c1C` (stereo in doubt) [Compound 71, 4-((cis)-4-(((S)-5-(ethoxycarbonyl)-6-(3-fluoro-2-methylphenyl)-2-(thiazol-2-yl)-3,6-dihydropyrimidin-4-yl)methyl)-6,6-difluoro-2-(2,2,2-trifluoroacetyl)hexahydropyrrolo[3,2-c]pyrazol-1(2H)-yl)-2,2-dimethylbutanoic acid], it took 20900 nM to reach half-maximal cytotoxicity in series [1] (CC50 at 6 days). In the series with HBV (Hepatitis B virus, HepG2.2.15, 144 h), this molecule showed a pEC50 of 7.54.
Regarding `CCOC(=O)C1=C(CN2CC(F)(F)C3C2CCN3CC(C)(C)C(=O)O)NC(c2nccs2)=N[C@H]1c1cccc(F)c1C` (stereo partly drawn) [Compound 1, 3-(4-(((S)-5-(ethoxycarbonyl)-6-(3-fluoro-2-methylphenyl)-2-(thiazol-2-yl)-3,6-dihydropyrimidin-4-yl)methyl)-6,6-difluorohexahydropyrrolo[3,2-b]pyrrol-1(2H)-yl)-2,2-dimethylpropanoic acid], in series [1], the CC50 at 6 days came out at 24800 nM. Besides, the pEC50 in the series with HBV (setting [3]) was 7.97.
In the same order, the values of `CCOC(=O)C1=C(CN2CC(F)(F)C3CC(C(=O)O)CC32)NC(c2nccs2)=N[C@H]1c1cccc(F)c1C` (stereo partly drawn) [Compound 2, (cis)-1-(((S)-5-(ethoxycarbonyl)-6-(3-fluoro-2-methylphenyl)-2-(thiazol-2-yl)-3,6-dihydropyrimidin-4-yl)methyl)-3,3-difluorooctahydrocyclo-penta[b]pyrrole-5-carboxylic acid] are 26700 nM and 8.39.
The corresponding values for `CCOC(=O)C1=C(CN2CCC3C(=O)N(CC(C)(C)C(=O)O)C(=O)C32)NC(c2nccs2)=N[C@H]1c1cccc(F)c1C` (stereo partly shown) [Compound 4] are 47800 nM and 7.25.
The molecule `CCOC(=O)C1=C(CN2CC(F)(F)C3C(=O)N(CC(C)(C)C(=O)O)CC32)NC(c2nccs2)=N[C@H]1c1cccc(F)c1C` (stereo partly shown) [Compound 5] returned a CC50 at 6 days in series [1] of 90100 nM. In addition, in the series on HBV (setting [3]), the pEC50 is 7.64.
`CCOC(=O)C1=C(CN2CC(F)C3C2CCN3CC(C)(C)C(=O)O)NC(c2nccs2)=N[C@H]1c1cccc(F)c1C` (stereo partly drawn) [Compound 11, 3-(4-(((S)-5-(ethoxycarbonyl)-6-(3-fluoro-2-methylphenyl)-2-(thiazol-2-yl)-3,6-dihydropyrimidin-4-yl)methyl)-6-fluorohexahydropyrrolo[3,2-b]pyrrol-1(2H)-yl)-2,2-dimethylpropanoic acid] yielded a CC50 at 6 days in series [1] of 37300 nM. Besides, the pEC50 in the series on HBV (setting [3]) was 7.15.
As for `CCOC(=O)C1=C(CN2CC(F)(F)C3CN(CC(C)(C)C(=O)O)C(=O)C32)NC(c2nccs2)=N[C@H]1c1cccc(F)c1C` (stereo partly shown) [Compound 13], the midpoint of cytotoxicity in series [1], the CC50 at 6 days, lay at 50000 nM. Moreover, the negative logarithm of the EC50 (pEC50) in the series with HBV (setting [3]) is 8.08.
In the same order, the values of `CCOC(=O)C1=C(CN2CC(F)(F)C3CN(CC4(C(=O)O)CC4)CC32)NC(c2nccs2)=N[C@H]1c1cccc(F)c1C` (stereo partly shown) [Compound 16] are 37200 nM and 6.95.
In the same order, the values of `CCOC(=O)C1=C(CN2CCC3C(=O)N(CC(C)(C)C(=O)O)CC32)NC(c2nccs2)=N[C@H]1c1cccc(F)c1C` (stereo partly shown) [Compound 25] are 95500 nM and 7.02.
The corresponding values for `CCOC(=O)C1=C(CN2CC(F)(F)C3C2CCN3NCC(C)(C)C(=O)O)NC(c2nccs2)=N[C@H]1c1cccc(F)c1C` (stereo partly shown) [Compound 27] are 13900 nM and 7.38.
In series [1], `CCOC(=O)C1=C(CN2CC(F)(F)C3C2CN(C(C)=O)N3CCC(C)(C)C(=O)O)NC(c2nccs2)=N[C@H]1c1cccc(F)c1C` (stereo partly drawn) [Compound 70, 4-(2-acetyl-4-(((S)-5-(ethoxycarbonyl)-6-(3-fluoro-2-methylphenyl)-2-(thiazol-2-yl)-3,6-dihydropyrimidin-4-yl)methyl)-6,6-difluorohexahydropyrrolo[3,2-c]pyrazol-1(2H)-yl)-2,2-dimethylbutanoic acid] yielded a CC50 at 6 days of 27100 nM. The pEC50 in the series on HBV (setting [3]) is 8.09.
Consider `CCOC(=O)C1=C(CN2CC(F)(F)[C@H]3[C@@H]2CN(C(C)=O)N3CCC(C)(C)C(=O)O)NC(c2nccs2)=N[C@H]1c1cccc(F)c1C` [Compound 70A, 4-((cis)-2-Acetyl-4-(((S)-5-(ethoxycarbonyl)-6-(3-fluoro-2-methylphenyl)-2-(thiazol-2-yl)-3,6-dihydropyrimidin-4-yl)methyl)-6,6-difluorohexahydropyrrolo[3,2-c]pyrazol-1(2H)-yl)-2,2-dimethylbutanoic acid], for which the half-maximal cytotoxic concentration (CC50) at 6 days in series [1] was > 50000 nM. Also, the pEC50 with HBV (setting [2]) was 7.46.
Turning to `CCOC(=O)C1=C(CN2CC(F)(F)[C@H]3[C@@H]2CN(C(C)=O)N3CCC(C)(C)C(=O)O)NC(c2nccs2)=N[C@H]1c1cccc(F)c1C` [Compound 70B, 4-((cis)-2-Acetyl-4-(((S)-5-(ethoxycarbonyl)-6-(3-fluoro-2-methylphenyl)-2-(thiazol-2-yl)-3,6-dihydropyrimidin-4-yl)methyl)-6,6-difluorohexahydropyrrolo[3,2-c]pyrazol-1(2H)-yl)-2,2-dimethylbutanoic acid], the CC50 with HepG2.2.15 cells was > 50000 nM. For the same molecule, in the series with HBV (setting [2]), the pEC50 is 7.80.
In series [1], `CCOC(=O)C1=C(CN2CC(F)(F)C3C2CN(C(C)=O)N3CCC(CC)C(=O)O)NC(c2nccs2)=N[C@H]1c1cccc(F)c1C` (stereo partly shown) [Compound 78] gave a CC50 at 6 days of 70300 nM. In addition, the negative-log EC50 (pEC50) in the series on HBV (setting [3]) is 7.31.
In the case of `CCOC(=O)C1=C(CN2CC(F)C3C(=O)N(CC(C)(C)C(=O)O)CC32)NC(c2nccs2)=N[C@H]1c1cccc(F)c1C` (stereo partly drawn) [Compound 186, 3-((cis)-1-(((S)-5-(ethoxycarbonyl)-6-(3-fluoro-2-methylphenyl)-2-(thiazol-2-yl)-3,6-dihydropyrimidin-4-yl)methyl)-3-fluoro-4-oxohexahydropyrrolo[3,4-b]pyrrol-5(1H)-yl)-2,2-dimethylpropanoic acid], in series [1], half-maximal cytotoxicity (CC50 at 6 days) was put at 66900 nM. The pEC50 in the series on HBV (setting [3]) is 8.05.
